# Source: publication PMC10813753 (Biology, 2024)
# Several values for one entry are separate records, joined by “and”; a condition that tells them apart may be missing. Equal entries are not always repeated.
# Assays:
# [1] = system: PC-3 cells (prostate tumor); experiment: MTT viability assay PC-3; type: cell-based, human; conditions: for selectivity index (SI), prostate tumor PC3 versus prostate non-tumor RWPE-1: from MTT IC50 values
# Protocol: (§1) A panel of five tumor cell lines and two normal cell lines was used to preliminarily test the cytotoxicity of compounds 1–4, and the experiments were conducted as previously reported. All human cell lines were acquired from American Type Culture Collection (ATCC): tumor PC-3 and DU145 (prostate), HeLa (cervix), MCF7 (breast) and HT29 (colorectal) and healthy HFF-1 (fibroblast) and RWPE-1 (prostate). The cell catalogue reference and culture media used in the experiments were CRL-1435^TM, RPMI (PC-3), HTB-81™, RPMI (DU145), CCL-2^TM, DMEM (HeLa), HTB-22^TM, DMEM (MCF-7), HTB-38^TM, modified McCoy’s 5a medium, Catalogue No. 30-2007 (HT29), SCRC-1041^TM, DMEM (HFF-1) and CRL-11609^TM, Keratinocyte-SFM (RWPE-1). Culture media were purchased from Merck: RPMI-1640, DMEM + 10% FBS (Fetal Bovine Serum) + […] (penicillin/streptomycin/amphotericin B). Media and supplements for RWPE-1 were from ThermoFisher (17005075, Madrid, Spain). MCF7 cells were additionally supplemented with insulin (0.001 mg/mL in 500 mL media). Cells were kept at 37 °C (5% CO2), and culture media were renewed three times per week. When the cells reached 80–100% confluence, they were trypsinized and centrifuged, and the concentration was adjusted to each experiment. Cells were seeded at a density of ~10,000 cells/well into 24-well plates. The cells were treated with ligands 1–4 or the cytotoxic agents PhenQE8, PhenDC3 or cisplatin at different concentrations (10 nM–100 μM). Compound solutions were freshly prepared using the appropriate culture medium. Triplicate experiments were run. For MTT viability assays, after 72 h incubation, 50 μL of MTT (5 mg/mL) was added, and an additional incubation of 4 h was allowed. The medium in each well was then replaced by DMSO, and the absorbance was measured at 570 nm using an ELISA plate reader. Absorbances were normalized using negative controls (untreated cells, in triplicate, with a maximum of 0.9% DMSO content). Dose–response curves were obtained by plotting the percentage of viable cells versus logarithmic compound concentration. IC50 values were determined using Kaleidagragh^TM (3.52) software by adjusting the data to Equation 1/(1 + 10^(m2*(log(m1) − x))); m1 = 0.000003; m2 = 1.
# [2] = system: HeLa cells; experiment: Cell cycle analysis by flow cytometry, HeLa; type: cell-based, human; conditions: ½ IC50 concentration, 72 h
# Protocol: For cell cycle experiments, exponentially growing HeLa cells in DMEM were seeded in 6-well plates at a density of 2.5 × 10^5/well. […] Untreated cells were used as controls. After washing with PBS, cells were detached with 0.25% trypsin/0.2% EDTA and centrifuged at 1500 rpm for 5 min at rt. The resulting pellets were mixed with cold 70% ethanol (0.5 mL) and kept at 4 °C for 30 min. Ethanol was removed by centrifugation, and the pellets were washed with 2 mL PBS + 2% BSA and centrifuged. After discarding the supernatants, a propidium iodide solution (PI/RNAse, FxCycle^TM, Invitrogen^TM ref. F10797, 0.5 mL, Thermo Fisher, Madrid, Spain) was added, mixed thoroughly and incubated for 15 min at room temperature prior to analysis by flow cytometry. A total of 10,000 events were registered for each sample. The obtained results were analyzed with the MacsQuantify 2.13.1 program (Miltenyi Biotech, Pozuelo de Alarcón, Spain) and represented as histograms.
# [3] = system: G4 Tel22 telomeric quadruplex DNA; experiment: Equilibrium dialysis (non-competition and competition), Tel22; type: binding, human; conditions: for Kapp (Tel22): 10 mM potassium phosphate, 100 mM KCl, pH 7.2
# Protocol: (§2) Equilibrium dialysis experiments were conducted with unlabeled quadruplex DNA and/or with dsDNA sequences as previously reported. G4 sequence Tel22 is 5′-A(GGGTTA)3GGG-3′, and ds17 is 5′-GGG TTA CTA CGA ACT GG-3′/5′-CCA GTT CGT AGT AAC CC-3′. The buffering system employed contained 10 mM potassium phosphate buffer and 100 mM of KCl (pH = 7.2). DNA solution concentrations were determined at 90 °C through UV-visible spectrophotometry using the λmax values and extinction coefficients provided by IDT®. Extinction coefficients of TSC ligand 1 were calculated in water and in buffer in the absence and in the presence of 1% (w/v) triton X-100. Competition and non-competition dialysis experiments were carried out using the protocol described by Chaires, with minor modifications. Dialysis bags (Biotech Regenerated Cellulose (RC) membrane, part number 133192, Spectrum Laboratories, Inc., Fisher, Madrid, Spain) with a 0.2 mL volume were used, with G4 Tel22 or duplex ds17 DNA at a concentration of 75 μM, in monomeric units. The dialysis bags were placed in a beaker containing 200 mL of a solution of compound 1 (2 μM) in buffer. The beaker was sealed with Parafilm, and the solution was allowed to equilibrate at room temperature (22 °C) for 24 h with continuous stirring. Then, the contents of the dialysis bags were transferred into microcentrifuge tubes, and triton X-100 was added (1% (w/v) final concentration). After 2 h equilibration at room temperature, the total concentration of the ligand (Ct) was determined using UV-visible spectroscopy. The concentration of free compound 1 (Cf) was also determined spectrophotometrically from the dialysate solution. The concentration of the DNA-bound compound (Cb) was then calculated using the equation Cb = Ct − Cf, and Kapp was determined.
# Assays were performed at room temperature with ~2 μM solutions of 1, equilibrated with 75 μM (in monomeric units, tetrads or base pairs, respectively) of the tested DNA sequence for 24 h, in a buffer containing 100 mM KCl. Afterwards, the surfactanct triton X-100 was added to the solutions contained in the dialysis bags, and the recording of the UV-visible spectra was used to determine the concentrations of free and DNA-bound ligands for each situation: Tel22, ds17 or competition experiment Tel22-ds17. The concentration of DNA-bound ligand was determined based on at least two different experiments performed in duplicate or triplicate. […]
# [4] = system: RWPE-1 cells (healthy prostate); experiment: MTT viability assay RWPE-1; type: cell-based, human; conditions: 72 h
# Protocol: as §1
# [5] = system: HT29 cells (colorectal); experiment: MTT viability assay HT29; type: cell-based, human; conditions: 72 h
# Protocol: as §1, with “Dose–response curves were obtained by plotting the percentage of viable cells versus logarithmic compound concentration.” left out
# [6] = system: ds17 duplex DNA; experiment: Equilibrium dialysis (non-competition and competition), ds17; type: binding; conditions: for Kapp (ds17): 10 mM potassium phosphate, 100 mM KCl, pH 7.2
# Protocol: as §2, with “Then, the contents of the dialysis bags were transferred into microcentrifuge tubes, and triton X-100 was added (1% (w/v) final concentration).” left out
# Assays were performed at room temperature with ~2 μM solutions of 1, equilibrated with 75 μM (in monomeric units, tetrads or base pairs, respectively) of the tested DNA sequence for 24 h, in a buffer containing 100 mM KCl. […] The concentration of DNA-bound ligand was determined based on at least two different experiments performed in duplicate or triplicate. […]
# [7] = competition dialysis (1 + Tel22 + ds17)
# [8] = order of magnitude, equilibrium dialysis
substance,measurement,setting,value
"2,2′-(1,10-Phenanthroline-2,9-diyl)-bis(methylene)-bis(hydrazine-1-carbothioamide) [compound 1]",IC50,"[1]; MTT, 72 h",18 µM and 18.4 µM
same,"selectivity index (SI), prostate tumor PC3 versus prostate non-tumor RWPE-1",[1],5
same,"selectivity index (SI), prostate tumor PC3 versus prostate non-tumor RWPE-1",[1]; listed as neutral derivative,~ 5
same,change in SubG0 population,[2],notably increased the number of cells in SubG0
same,Kapp (Tel22),[3]; [7],1.2 ± 0.1 (M^−1) × 10^−5
same,binding selectivity Kapp (Tel22)/Kapp (ds17),[3]; competitive assay,~24 fold
same,Kapp (Tel22),"[3]; non-competition dialysis (1 + Tel22), apparent association constant, order 10^5 M^−1",1.1 ± 0.1 (M^−1) × 10^−5
same,apparent association constant to telomeric quadruplex,[3]; [8],~10^5 M^−1
same,IC50,[4],90.8 ± 8.8 µM
same,IC50,[5],> 100 µM
same,Kapp (ds17),[6]; [7],0.05 ± 0.01 (M^−1) × 10^−5
same,Kapp (ds17),[6]; non-competition dialysis (1 + ds17),0.06 ± 0.01 (M^−1) × 10^−5
same,apparent association constant to dsDNA ds17,[6]; [8],~10^3 M^−1 and ~ 5 × 10^3 M^−1
